Drawing on paper PMC3726336, “Product inhibition of cellulases studied with ^14C-labeled cellulose substrates” (Biotechnology for Biofuels, 2013), this text covers Ki and IC50 for 1 molecule.

Common to all, as to type: biochemical
In experiment [1] the target is T1, TrCel7A (Trichoderma reesei, UniProt P62694).
T1 construct: TrCel7A was purified from the culture filtrate of Tr QM 9414 as described previously; made in house; host or cells: Trichoderma reesei QM 9414 culture filtrate (native producer)
T1 sequence (P62694 18-513): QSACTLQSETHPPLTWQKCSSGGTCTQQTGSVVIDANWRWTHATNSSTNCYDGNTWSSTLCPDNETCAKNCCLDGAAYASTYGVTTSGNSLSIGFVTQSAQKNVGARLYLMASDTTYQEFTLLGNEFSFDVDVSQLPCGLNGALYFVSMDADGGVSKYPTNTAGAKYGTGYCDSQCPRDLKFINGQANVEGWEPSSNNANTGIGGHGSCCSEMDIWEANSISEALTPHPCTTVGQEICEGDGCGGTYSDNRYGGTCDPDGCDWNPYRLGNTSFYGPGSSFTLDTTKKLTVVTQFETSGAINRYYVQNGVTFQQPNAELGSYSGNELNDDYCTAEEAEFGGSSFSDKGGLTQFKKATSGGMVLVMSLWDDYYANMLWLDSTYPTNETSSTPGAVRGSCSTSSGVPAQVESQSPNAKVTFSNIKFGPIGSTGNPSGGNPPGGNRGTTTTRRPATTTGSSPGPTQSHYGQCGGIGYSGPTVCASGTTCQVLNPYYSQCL
As to the kind of experiment: Cellobiose inhibition of MUL hydrolysis by TrCel7A. The conditions noted are these: Ki for cellobiose, MUL substrate (5 μM). The text has this:
The cellobiose inhibition of GH7 CBHs is most often studied on low-Mw model substrates. However, it has been shown that the inhibition of CBHs acting on low-Mw substrates appears to be much stronger than that on cellulose substrates. The Ki values for cellobiose inhibition of GH7 CBHs measured on low-Mw substrates are in the micromolar range [44, 51, 52], whereas those measured on cellulose are in the low- to high-millimolar range [28, 31, 32]. […] Unfortunately, the inhibition of this enzyme on cellulose has not been studied. We also studied the cellobiose inhibition of GH7 CBHs acting on MUL. The initial rates of MUL hydrolysis measured in the presence and absence of added cellobiose were first analyzed according to Equation 1, and the IC50 values were found using Equation 2. […] The inhibition of MUL hydrolysis is attributable to the binding of cellobiose to the product sites (+1/+2) of TrCel7A [52]. […]
For the inhibition of enzyme acting on the low-Mw substrate, the initial rates of the hydrolysis of MUL in the presence and absence of added cellobiose were followed. […] Reactions were stopped by the addition of NH3 (final concentration 0.1 M), and the released 4-methylumbelliferone was quantified by fluorescence using excitation and emission wavelengths of 360 nm and 450 nm, respectively.

Experiment [2] deals with T2, TrCel6A (Trichoderma reesei, UniProt P07987).
T2 construct: TrCel6A was purified from the culture filtrate of Tr QM 9414 as described previously; made in house; host or cells: Trichoderma reesei QM 9414 culture filtrate (native producer)
T2 sequence (P07987 25-471): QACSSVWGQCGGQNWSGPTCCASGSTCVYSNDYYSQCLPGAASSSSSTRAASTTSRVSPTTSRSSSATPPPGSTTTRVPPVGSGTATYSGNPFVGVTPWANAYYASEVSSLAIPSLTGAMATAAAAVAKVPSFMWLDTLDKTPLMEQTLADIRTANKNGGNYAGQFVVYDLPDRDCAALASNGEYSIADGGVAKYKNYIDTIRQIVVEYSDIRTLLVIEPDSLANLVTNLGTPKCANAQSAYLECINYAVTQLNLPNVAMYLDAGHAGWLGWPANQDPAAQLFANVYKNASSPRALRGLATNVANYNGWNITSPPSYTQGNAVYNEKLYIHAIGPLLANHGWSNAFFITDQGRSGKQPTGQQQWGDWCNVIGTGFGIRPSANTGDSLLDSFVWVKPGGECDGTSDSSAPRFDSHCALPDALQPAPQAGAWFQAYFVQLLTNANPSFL
Briefly: Cellobiose inhibition of synergistic hydrolysis of 14C-BC by TrCel6A and EG TrCel5A. The text has this: (§1) Here, we characterized the cellobiose and glucose inhibition of TrCel6A and its thermophilic counterpart, CtCel6A [9, 63]. First, the cellobiose inhibition of the synergistic hydrolysis of ^14C-BC by TrCel6A and TrCel5A was studied (Figure 7A). As TrCel6A was less sensitive to cellobiose inhibition than TrCel7A, the contribution of the cellobiose released during hydrolysis was not significant, and an average (DCB/DCB=0) over all time points was used in plotting (DCB/DCB=0) versus [cellobiose] (Figure 7D). No significant systematic variation of DCB/DCB=0 depending on hydrolysis time was observed. As in the case of GH7 CBHs, the IC50 value was found using Equations 5 and 6. Because the IC50 value for synergistic hydrolysis (Table 3) was of the same order as the apparent Ki value reported for TrCel5A [31], we further tested the inhibition of individual TrCel6A. BC is not a good substrate for TrCel6A, but its acid-treated derivative, BMCC, is readily degraded by the enzyme. Therefore, we prepared ^14C-BMCC by the heterogeneous acid hydrolysis of ^14C-BC. Without supplied cellobiose, both enzymes had similar activity with the ^14C-BMCC substrate, but CtCel6A was somewhat more resistant to cellobiose inhibition (Figure 7D, Table 3). The IC50 value for TrCel6A by itself was similar to that found for the synergistic hydrolysis. […]

In experiment [3] the target is T2, TrCel6A. Briefly: Inhibition of hydrolysis of 14C-BMCC by TrCel6A.
Text: as §1, with “^14C-BC.” for “^14C-BC. Without supplied cellobiose, both enzymes had similar activity with the ^14C-BMCC substrate, but CtCel6A was somewhat more resistant to cellobiose inhibition (Figure 7D, Table 3). The IC50 value for TrCel6A by itself was similar to that found for the synergistic hydrolysis.”
GH6 CBHs were assessed by observing the hydrolysis of ^14C-BMCC. ^14C-BMCC (0.25 g l^-1) was incubated (with shaking at 350 rpm) with CBH (0.25 μM) and N188BG (0.06 μM) in 50 mM sodium acetate buffer, pH 5.0, containing BSA (0.1 g l^-1). […]

Consider `O=C[C@H](O)[C@@H](O)[C@H](O[C@@H]1O[C@H](CO)[C@@H](O)[C@H](O)[C@H]1O)[C@H](O)CO` [cellobiose, Cellobiose], for which the Ki in experiment [1] (35°C) is 0.04 mM; in experiment [1] (50°C), 0.124 mM. Also, the IC50 in experiment [2] was 16 ± 0.5 mM; in experiment [3], 20 ± 1.4 mM.
